Results: patent US20060257843A1 (priority 2002, published 2006)
Values joined by “and” are separate entries in the source; they are usually repeats but may differ in a detail not shown here. Identical values can stand only once. “Also recorded” adds a separate entry of the source. Bridge positions count the residues as written; N and C are the ends. Square brackets hold non-standard residues; d marks the D form. Peptide text beside a SMILES is read from it. Hyp = O=C(O)[C@@H]1C[C@@H](O)CN1

What was measured:
[1] = target: Shaker H4 potassium channel (Drosophila melanogaster, UniProt P08510); conditions: cited from earlier work
Shaker H4 potassium channel, sequence (P08510 whole entry): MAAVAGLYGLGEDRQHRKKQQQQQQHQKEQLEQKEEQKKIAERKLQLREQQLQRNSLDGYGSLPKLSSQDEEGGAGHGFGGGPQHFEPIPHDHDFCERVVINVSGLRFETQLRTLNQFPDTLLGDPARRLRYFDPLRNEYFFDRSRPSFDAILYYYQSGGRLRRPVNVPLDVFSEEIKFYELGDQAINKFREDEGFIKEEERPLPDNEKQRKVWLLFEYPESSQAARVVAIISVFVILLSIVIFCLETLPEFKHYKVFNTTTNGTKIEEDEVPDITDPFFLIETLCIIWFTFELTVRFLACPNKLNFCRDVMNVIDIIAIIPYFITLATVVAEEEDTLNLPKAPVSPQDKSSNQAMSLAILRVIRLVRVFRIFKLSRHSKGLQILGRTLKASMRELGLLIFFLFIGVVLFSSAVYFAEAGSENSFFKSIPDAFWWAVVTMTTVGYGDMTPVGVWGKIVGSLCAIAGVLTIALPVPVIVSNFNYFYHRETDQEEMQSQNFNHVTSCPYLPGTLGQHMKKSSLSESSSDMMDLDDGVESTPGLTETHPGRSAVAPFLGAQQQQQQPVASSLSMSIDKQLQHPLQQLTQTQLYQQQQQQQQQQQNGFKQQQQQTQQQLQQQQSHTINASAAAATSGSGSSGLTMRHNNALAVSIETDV

Kv1.1 = target: T1, Kv1.1 (Homo sapiens, UniProt Q09470); conditions: cited from earlier work
T1 construct: host or cells: oocytes
T1 sequence (Q09470 whole entry): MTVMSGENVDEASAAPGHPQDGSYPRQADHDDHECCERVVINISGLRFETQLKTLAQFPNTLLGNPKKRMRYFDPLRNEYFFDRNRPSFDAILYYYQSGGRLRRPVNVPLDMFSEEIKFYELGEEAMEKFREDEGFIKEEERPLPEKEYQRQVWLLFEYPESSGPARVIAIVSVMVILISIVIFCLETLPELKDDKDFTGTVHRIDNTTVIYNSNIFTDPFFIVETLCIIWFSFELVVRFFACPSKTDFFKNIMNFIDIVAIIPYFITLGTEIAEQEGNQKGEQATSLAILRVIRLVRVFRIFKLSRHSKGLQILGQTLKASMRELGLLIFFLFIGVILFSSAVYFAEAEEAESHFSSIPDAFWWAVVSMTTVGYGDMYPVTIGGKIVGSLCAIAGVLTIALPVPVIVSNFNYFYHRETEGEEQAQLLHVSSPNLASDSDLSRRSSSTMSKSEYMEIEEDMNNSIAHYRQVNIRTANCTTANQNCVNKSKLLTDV

[2] = test system: cardiac ventricular myocytes; format: cell-based, rat
[3] = test system: primary cultures of cortical neurons; format: cell-based, rat
F425G Shaker mutation = F425G Shaker mutation (Drosophila melanogaster, UniProt P08510, F425G); conditions: cited from earlier work
F425G Shaker mutation, sequence (P08510 whole entry F425G): as the sequence (P08510 whole entry) above, with F425G counted along it

[4] = test system: primary cultures of cortex; format: cell-based, rat
canine model of AMI = conditions: dog, in vivo
cardiac myocytes = format: cell-based, rat
anesthetized rat = conditions: in vivo, iv
[5] = test system: primary cultures of ventricular myocytes
[6] = test system: primary cortical cultures
[7] = test system: ventricular myocytes, cortex and trachea; format: cell-based, rat
Kv1.3 = target: T2, Kv1.3 (Homo sapiens, UniProt P22001); conditions: cited from earlier work
T2 construct: host or cells: oocytes
T2 sequence (P22001 whole entry): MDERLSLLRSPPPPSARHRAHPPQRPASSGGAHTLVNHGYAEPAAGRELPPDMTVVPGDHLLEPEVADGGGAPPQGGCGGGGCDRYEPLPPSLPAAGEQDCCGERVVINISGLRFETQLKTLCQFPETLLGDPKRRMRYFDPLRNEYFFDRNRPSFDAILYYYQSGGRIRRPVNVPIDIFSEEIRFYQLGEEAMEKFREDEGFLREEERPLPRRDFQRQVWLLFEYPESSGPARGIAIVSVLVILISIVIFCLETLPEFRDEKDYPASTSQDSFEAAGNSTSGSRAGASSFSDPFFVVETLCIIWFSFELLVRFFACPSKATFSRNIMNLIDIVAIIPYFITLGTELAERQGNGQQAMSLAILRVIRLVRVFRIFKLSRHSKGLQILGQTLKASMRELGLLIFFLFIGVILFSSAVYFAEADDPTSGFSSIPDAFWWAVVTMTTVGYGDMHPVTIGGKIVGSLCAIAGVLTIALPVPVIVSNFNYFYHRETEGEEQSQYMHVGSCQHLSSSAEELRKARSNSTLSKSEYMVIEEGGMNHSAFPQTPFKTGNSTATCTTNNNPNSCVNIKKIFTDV

[8] = test system: primary cultures of cortex; format: cell-based, rat; remark: listed apart in the source
[9] = test system: primary cultures of cortex
Kv1.4 = Kv1.4 (Homo sapiens, UniProt P22459); conditions: cited from earlier work
Kv1.4, sequence (P22459 whole entry): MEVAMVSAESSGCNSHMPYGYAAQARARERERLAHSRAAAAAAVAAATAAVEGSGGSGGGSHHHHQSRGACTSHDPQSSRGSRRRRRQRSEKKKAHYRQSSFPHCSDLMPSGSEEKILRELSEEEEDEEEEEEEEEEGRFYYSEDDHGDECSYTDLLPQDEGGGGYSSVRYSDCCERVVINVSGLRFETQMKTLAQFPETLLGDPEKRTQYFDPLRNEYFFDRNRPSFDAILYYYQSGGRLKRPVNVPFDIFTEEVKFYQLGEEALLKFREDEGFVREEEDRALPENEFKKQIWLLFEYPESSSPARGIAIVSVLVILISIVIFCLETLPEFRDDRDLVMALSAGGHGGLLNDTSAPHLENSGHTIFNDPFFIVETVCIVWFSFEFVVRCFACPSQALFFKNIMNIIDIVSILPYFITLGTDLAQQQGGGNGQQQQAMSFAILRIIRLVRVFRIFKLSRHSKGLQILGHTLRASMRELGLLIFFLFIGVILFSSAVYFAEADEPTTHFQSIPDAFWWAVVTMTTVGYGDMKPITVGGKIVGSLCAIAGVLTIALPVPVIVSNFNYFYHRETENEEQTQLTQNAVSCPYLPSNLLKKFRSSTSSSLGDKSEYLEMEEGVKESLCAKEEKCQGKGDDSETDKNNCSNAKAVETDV

[10] = test system: New Zealand White rabbits; conditions: rabbit, in vivo
[11] = test system: primary cultures of cortex; format: cell-based, rat; remark: listed apart in the source

CC[C@H](C)[C@@H]1NC(=O)[C@H](CCCNC(=N)N)NC(=O)[C@@H](N)CSSC[C@@H]2NC(=O)[C@@H]3CSSC[C@@H](C(=O)N[C@H](C(=O)O)C(C)C)NC(=O)[C@H](CCCCN)NC(=O)[C@H](CC(N)=O)NC(=O)[C@H](Cc4ccccc4)NC(=O)[C@H](CCCNC(=N)N)NC(=O)[C@H](CC(N)=O)NC(=O)[C@H](CSSC[C@H](NC(=O)[C@H](CCCCN)NC(=O)[C@H](CCC(N)=O)NC(=O)[C@H](CC(N)=O)NC(=O)[C@@H]4C[C@@H](O)CN4C1=O)C(=O)N[C@@H](Cc1ccccc1)C(=O)N[C@@H](CCC(N)=O)C(=O)N[C@@H](Cc1c[nH]cn1)C(=O)N[C@@H](CC(C)C)C(=O)N[C@@H](CC(=O)O)C(=O)N[C@@H](CC(=O)O)C(=O)N3)NC(=O)[C@H](CCCCN)NC(=O)[C@H](CCCNC(=N)N)NC(=O)[C@H](CO)NC2=O [κ-PVIIA, Cys-Xaa1-Ile-Xaa2-Asn-Gln-Xaa3-Cys-Xaa4-Gln-Xaa5-Leu-Asp-Asp-Cys-Cys-Ser-Xaa1-Xaa3-Cys-Asn-Xaa1-Xaa4-Asn-Xaa3-Cys-Val] (H-CRI[Hyp]NQKCFQHLDDCCSRKCNRFNKCV-OH; disulfide 1-16, 8-20, 15-26)
block of the Drosophila H4 shaker K+ channel [1]: block | activity on Kv1.1 (Kv1.1): no effects; also recorded: no detectable activity | protection against hypoxia-induced depolarization [2]: prevented any hypoxia-induced changes in membrane potential; also recorded: protective effect | protective effect against hypoxia induced depolarization (initial screen, Example 10) [2]: strong protective effect | change in intracellular calcium (Fluo-3 fluorescence) [3]: −2.15±0.95% and −8.8±3.9% | effect of F425G Shaker mutation on κ-PVIIA sensitivity (F425G Shaker mutation): abolishes | intracellular K+ concentration (PBFI fluorescence) [4]: reduction | drop in blood pressure normally seen upon reperfusion (canine model of AMI): prevented the drop in blood pressure | lowest effective dose (canine model of AMI): 0.1 mg/kg | effect on infarct size (canine model of AMI; iv): No significant effect | reduction of infarct size (canine model of AMI; iv): approximately 60% | current corrected for cell capacitance (cardiac myocytes): 4.6±0.4 pA/pf | current evoked by κ-PVIIA (cardiac myocytes): 87.7±5.9 pA | experimentally determined Ek (reversal potential of evoked current) (cardiac myocytes): −23 mV | reversal of κ-PVIIA-induced inward current (cardiac myocytes): ~−20 mV | sensitivity of evoked currents to KATP antagonists (cardiac myocytes): sensitive | effect on blood pressure (anesthetized rat): no effect | effect on heart rate (anesthetized rat): no effect | effect on infarct size (isolated rabbit hearts): reduced the infarct size; also recorded: no effect | EC50 [5]: 0.0009 pM | protease activity (cytotoxicity) [6]: no detectable protease activity | protection against hypoxia-induced changes in intracellular calcium [7]: able to provide protection against hypoxia | effects on Kv1.3 (Kv1.3): no effects | initial glutamate-induced depolarization [8]: prevents the initial glutamate-induced depolarization | EC50 [9]: 0.0008 pM | activity on Kv1.4 (Kv1.4): no detectable activity | degree of glutamate-induced excitotoxicity (delayed cellular death) (cortical cells): effectively reduces the degree of glutamate-induced excitotoxicity in a dose-dependant manner | protection against delayed cytotoxic effects of glutamate (cortical cells): very effective protection | hemodynamic effect [10]: without any hemodynamic effect | lowest effective dose [10]: 0.01 mg/kg | infarct size as % of risk zone, protection ([10]; iv): equally as protective | current corrected for cell capacitance [11]: 2.4±0.7 pA/pf | current evoked by κ-PVIIA [11]: 26.2±6.2 pA | reversal of κ-PVIIA-induced inward current [11]: ~−20 mV | sensitivity of evoked currents to KATP antagonists [11]: sensitive
